# Measurements reported in patent publication US6737383B1, “Herbicidal oxadiazolidines” (priority 1999, dated 2004).
# Legend:
# [1] = tested on: rape; experiment: Test B pre/postemergence rape; assay type: in vivo, Brassica napus
# Summary of the method: (§1)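 Response is a visual 0-to-10 score relative to untreated plants, where 0 means no effect and 10 means complete control, taken twelve to sixteen days after application. Treatments went onto soil at planting and onto foliage of 1- to 4-leaf plants, using a surfactant-containing non-phytotoxic solvent.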
# [2] = tested on: smallflower flatsedge; experiment: Test B flood test smallflower flatsedge; assay type: in vivo, Cyperus difformis
# Summary of the method: (§2)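 Read-out is a visual response score from 0 (no effect) to 10 (complete control), assigned by comparison with untreated controls. Treatment was applied at the 2-leaf stage, and plants stayed in the greenhouse for twelve to sixteen days before scoring.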
# [3] = tested on: blackgrass; experiment: Test B pre/postemergence blackgrass; assay type: in vivo, Alopecurus myosuroides
# Summary of the method: as §1
# [4] = tested on: crabgrass; experiment: Test B pre/postemergence crabgrass; assay type: in vivo, Digitaria sanguinalis
# Summary of the method: as §1
# [5] = tested on: soybean; experiment: Test B pre/postemergence soybean; assay type: in vivo, Glycine max
# Summary of the method: as §1
# [6] = tested on: wild oat; experiment: Test B pre/postemergence wild oat; assay type: in vivo, Avena fatua
# Summary of the method: as §1
# [7] = tested on: velvetleaf; experiment: Test B pre/postemergence velvetleaf; assay type: in vivo, Abutilon theophrasti
# Summary of the method: as §1
# [8] = tested on: bamyardgrass; experiment: Test B flood test barnyardgrass; assay type: in vivo, Echinochloa crus-galli
# Summary of the method: as §2
# [9] = tested on: sugar beet; experiment: Test B pre/postemergence sugar beet; assay type: in vivo, Beta vulgaris
# Summary of the method: as §1
# [10] = tested on: morningglory; experiment: Test B pre/postemergence morningglory; assay type: in vivo, Ipomoea hederacea
# Summary of the method: as §1
# [11] = tested on: giant foxtail; experiment: Test B pre/postemergence giant foxtail; assay type: in vivo, Setaria faberii
# Summary of the method: as §1
# [12] = tested on: pigweed; experiment: Test B pre/postemergence pigweed; assay type: in vivo, Amaranthus retroflexus
# Summary of the method: as §1
# [13] = tested on: cocklebur; experiment: Test B pre/postemergence cocklebur; assay type: in vivo, Xanthium strumarium
# Summary of the method: as §1
# [14] = tested on: purple nutsedge; experiment: Test B pre/postemergence purple nutsedge; assay type: in vivo, Cyperus rotundus
# Summary of the method: as §1
# [15] = tested on: surinam grass; experiment: Test B pre/postemergence surinam grass; assay type: in vivo, Brachiaria decumbens
# Summary of the method: as §1
# [16] = tested on: corn; experiment: Test B pre/postemergence corn; assay type: in vivo, Zea mays
# Summary of the method: as §1
# [17] = Postemergence, Rate 31 g/ha, visual rating, scale 0 to 10 (0 no effect, 10 complete control)
# [18] = Preemergence, Rate 31 g/ha, visual rating, scale 0 to 10 (0 no effect, 10 complete control)
# [19] = Preemergence, Rate 62 g/ha, scale of 0 to 10 where 0 is no effect and 10 is complete control
# [20] = Preemergence, Rate 250 g/ha, scale of 0 to 10 where 0 is no effect and 10 is complete control
# [21] = Rate 62 g/ha, Postemergence, scale 0 to 10 (0 no effect, 10 complete control)
# [22] = Rate 125 g/ha, Postemergence, scale of 0 to 10 where 0 is no effect and 10 is complete control
# [23] = Rate 125 g/ha, Preemergence, scale of 0 to 10 where 0 is no effect and 10 is complete control
# [24] = Rate 250 g/ha, Postemergence, scale of 0 to 10 where 0 is no effect and 10 is complete control
# [25] = Rate 31 g/ha, Pre-emergence section (flood test species), scale 0 to 10
# [26] = Rate 62 g/ha, headed Pre-emergence (flood test species), scale 0 to 10 (0 no effect, 10 complete control)
# [27] = Rate 125 g/ha, Pre-emergence, flood test species, scale 0 to 10 where 0 is no effect and 10 is complete control
# [28] = Rate 250 g/ha, Pre-emergence, flood-test species, scale 0 to 10, 0 is no effect, 10 is complete control
smiles,measurement,setting,value
CCOCn1c(=O)on(C(=O)N(c2ccc(F)cc2)C(C)C)c1=O [Compound 295],Rape plant response rating,[1]; [17],0
same,Rape plant response rating,[1]; [18],0
same,Rape plant response rating,[1]; [19],0
same,Rape plant response rating,[1]; [20],10
same,Rape plant response rating,[1]; [21],0
same,Rape plant response rating,[1]; [22],0
same,Rape plant response rating,[1]; [23],2
same,"Plant response rating, Rape",[1]; [24],3
same,S. Flatsedge plant response rating,[2]; [25],0
same,S. Flatsedge plant response rating,[2]; [26],0
same,S. Flatsedge plant response rating,[2]; [27],0
same,S. Flatsedge plant response rating,[2]; [28],0
same,Blackgrass plant response rating,[3]; [17],0
same,Blackgrass plant response rating,[3]; [18],4
same,Blackgrass plant response rating,[3]; [19],5
same,Blackgrass plant response rating,[3]; [20],10
same,Blackgrass plant response rating,[3]; [21],2
same,Blackgrass plant response rating,[3]; [22],7
same,Blackgrass plant response rating,[3]; [23],10
same,"Plant response rating, Blackgrass",[3]; [24],9
same,Crabgrass plant response rating,[4]; [17],0
same,Crabgrass plant response rating,[4]; [18],2
same,Crabgrass plant response rating,[4]; [19],2
same,Crabgrass plant response rating,[4]; [20],7
same,Crabgrass plant response rating,[4]; [21],0
same,Crabgrass plant response rating,[4]; [22],3
same,Crabgrass plant response rating,[4]; [23],7
same,"Plant response rating, Crabgrass",[4]; [24],8
same,Soybean plant response rating,[5]; [17],1
same,Soybean plant response rating,[5]; [18],0
same,Soybean plant response rating,[5]; [19],0
same,Soybean plant response rating,[5]; [20],0
same,Soybean plant response rating,[5]; [21],2
same,Soybean plant response rating,[5]; [22],2
same,Soybean plant response rating,[5]; [23],0
same,"Plant response rating, Soybean",[5]; [24],4
same,Wild oats plant response rating,[6]; [17],0
same,Wild oats plant response rating,[6]; [18],0
same,Wild oats plant response rating,[6]; [19],2
same,Wild oats plant response rating,[6]; [20],9
same,Wild oats plant response rating,[6]; [21],0
same,Wild oats plant response rating,[6]; [22],0
same,"Plant response rating, Wild oats",[6]; [24],2
same,Velvetleaf plant response rating,[7]; [17],0
same,Velvetleaf plant response rating,[7]; [18],0
same,Velvetleaf plant response rating,[7]; [19],0
same,Velvetleaf plant response rating,[7]; [20],3
same,Velvetleaf plant response rating,[7]; [21],0
same,Velvetleaf plant response rating,[7]; [22],0
same,Velvetleaf plant response rating,[7]; [23],0
same,"Plant response rating, Velvetleaf",[7]; [24],5
same,Barnyardgrass plant response rating,[8]; [25],0
same,Barnyardgrass plant response rating,[8]; [26],0
same,Barnyardgrass plant response rating,[8]; [27],0
same,Barnyardgrass plant response rating,[8]; [28],0
same,Sugarbeets plant response rating,[9]; [17],0
same,Sugarbeets plant response rating,[9]; [18],0
same,Sugarbeets plant response rating,[9]; [19],0
same,Sugarbeets plant response rating,[9]; [20],3
same,Sugarbeets plant response rating,[9]; [21],0
same,Sugarbeets plant response rating,[9]; [22],0
same,Sugarbeets plant response rating,[9]; [23],0
same,"Plant response rating, Sugarbeets",[9]; [24],0
same,Morningglory plant response rating,[10]; [17],1
same,Morningglory plant response rating,[10]; [18],0
same,Morningglory plant response rating,[10]; [19],0
same,Morningglory plant response rating,[10]; [20],0
same,Morningglory plant response rating,[10]; [21],1
same,Morningglory plant response rating,[10]; [22],5
same,Morningglory plant response rating,[10]; [23],0
same,"Plant response rating, Morningglory",[10]; [24],7
same,Giant foxtail plant response rating,[11]; [17],0
same,Giant foxtail plant response rating,[11]; [18],8
same,Giant foxtail plant response rating,[11]; [19],8
same,Giant foxtail plant response rating,[11]; [20],10
same,Giant foxtail plant response rating,[11]; [21],0
same,Giant foxtail plant response rating,[11]; [22],6
same,Giant foxtail plant response rating,[11]; [23],10
same,"Plant response rating, Giant foxtail",[11]; [24],9
same,Redroot pigweed plant response rating,[12]; [17],0
same,Redroot pigweed plant response rating,[12]; [18],0
same,Redroot pigweed plant response rating,[12]; [19],3
same,Redroot pigweed plant response rating,[12]; [20],6
same,Redroot pigweed plant response rating,[12]; [21],0
same,Redroot pigweed plant response rating,[12]; [22],5
same,Redroot pigweed plant response rating,[12]; [23],6
same,"Plant response rating, Redroot pigweed",[12]; [24],7
same,Cocklebur plant response rating,[13]; [17],0
same,Cocklebur plant response rating,[13]; [18],0
same,Cocklebur plant response rating,[13]; [19],0
same,Cocklebur plant response rating,[13]; [20],0
same,Cocklebur plant response rating,[13]; [21],0
same,Cocklebur plant response rating,[13]; [22],0
same,Cocklebur plant response rating,[13]; [23],0
same,"Plant response rating, Cocklebur",[13]; [24],0
same,Nutsedge plant response rating,[14]; [17],0
same,Nutsedge plant response rating,[14]; [18],0
same,Nutsedge plant response rating,[14]; [19],0
same,Nutsedge plant response rating,[14]; [20],0
same,Nutsedge plant response rating,[14]; [21],0
same,Nutsedge plant response rating,[14]; [22],0
same,Nutsedge plant response rating,[14]; [23],0
same,"Plant response rating, Nutsedge",[14]; [24],0
same,B. signalgrass plant response rating,[15]; [17],0
same,B. signalgrass plant response rating,[15]; [18],3
same,B. signalgrass plant response rating,[15]; [19],6
same,B. signalgrass plant response rating,[15]; [20],8
same,B. signalgrass plant response rating,[15]; [21],0
same,B. signalgrass plant response rating,[15]; [22],0
same,B. signalgrass plant response rating,[15]; [23],6
same,"Plant response rating, B. signalgrass",[15]; [24],5
same,Corn plant response rating,[16]; [17],0
same,Corn plant response rating,[16]; [18],0
same,Corn plant response rating,[16]; [19],0
same,Corn plant response rating,[16]; [20],0
same,Corn plant response rating,[16]; [21],0
same,Corn plant response rating,[16]; [22],0
same,Corn plant response rating,[16]; [23],0
same,"Plant response rating, Corn",[16]; [24],0
